Paper PMC7179119, “A New Positron Emission Tomography Probe for Orexin Receptors Neuroimaging” (Molecules, 2020)
Read-outs that look alike come from different tables or passages of the source.

Key:
Test in all cases: PDSP off-target radioligand binding assay
Sigma 2 = conditions: 10 µM
Outline: (§1)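 Read-out is percent inhibition of specific radioligand binding, from scintillation counting of filter-trapped bound ligand. The compound was present at 10 µM in quadruplicate wells, with radioligand close to Kd and 90 min room-temperature incubation in the dark.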

5-HT3 = target: T1, 5-HT3 (Homo sapiens, UniProt P46098)
T1 construct: NIMH PDSP
T1 sequence (P46098 24-478): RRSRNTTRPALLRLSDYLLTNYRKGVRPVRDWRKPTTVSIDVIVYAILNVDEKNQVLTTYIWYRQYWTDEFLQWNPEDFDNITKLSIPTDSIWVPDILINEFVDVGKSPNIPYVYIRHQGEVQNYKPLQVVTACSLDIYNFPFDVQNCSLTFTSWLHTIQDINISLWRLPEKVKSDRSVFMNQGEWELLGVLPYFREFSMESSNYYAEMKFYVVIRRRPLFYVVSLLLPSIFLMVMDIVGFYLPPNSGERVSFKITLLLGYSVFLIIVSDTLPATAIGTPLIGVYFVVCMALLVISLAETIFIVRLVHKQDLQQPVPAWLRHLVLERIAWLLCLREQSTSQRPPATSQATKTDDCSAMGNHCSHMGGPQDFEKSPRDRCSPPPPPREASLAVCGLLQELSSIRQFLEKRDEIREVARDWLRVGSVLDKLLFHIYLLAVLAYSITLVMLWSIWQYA
Outline: as §1

5-HT2C = target: T2, 5-HT2C (Homo sapiens, UniProt P28335)
T2 construct: NIMH PDSP
T2 sequence (P28335 33-458): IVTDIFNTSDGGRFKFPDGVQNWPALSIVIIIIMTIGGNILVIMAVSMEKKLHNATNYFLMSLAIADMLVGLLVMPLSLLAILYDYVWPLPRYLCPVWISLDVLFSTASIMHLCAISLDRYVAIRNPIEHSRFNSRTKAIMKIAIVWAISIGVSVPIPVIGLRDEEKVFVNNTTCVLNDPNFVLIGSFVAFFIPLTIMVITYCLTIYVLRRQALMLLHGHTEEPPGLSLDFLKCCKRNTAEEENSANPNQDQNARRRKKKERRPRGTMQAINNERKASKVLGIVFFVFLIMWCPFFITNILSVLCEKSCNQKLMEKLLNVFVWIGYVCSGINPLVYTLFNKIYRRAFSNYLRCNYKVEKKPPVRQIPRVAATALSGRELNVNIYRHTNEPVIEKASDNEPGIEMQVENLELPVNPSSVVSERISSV
Outline: as §1

Alpha1D = target: T3, Alpha1D (Homo sapiens, UniProt P25100)
T3 construct: NIMH PDSP
T3 sequence (P25100 1-572): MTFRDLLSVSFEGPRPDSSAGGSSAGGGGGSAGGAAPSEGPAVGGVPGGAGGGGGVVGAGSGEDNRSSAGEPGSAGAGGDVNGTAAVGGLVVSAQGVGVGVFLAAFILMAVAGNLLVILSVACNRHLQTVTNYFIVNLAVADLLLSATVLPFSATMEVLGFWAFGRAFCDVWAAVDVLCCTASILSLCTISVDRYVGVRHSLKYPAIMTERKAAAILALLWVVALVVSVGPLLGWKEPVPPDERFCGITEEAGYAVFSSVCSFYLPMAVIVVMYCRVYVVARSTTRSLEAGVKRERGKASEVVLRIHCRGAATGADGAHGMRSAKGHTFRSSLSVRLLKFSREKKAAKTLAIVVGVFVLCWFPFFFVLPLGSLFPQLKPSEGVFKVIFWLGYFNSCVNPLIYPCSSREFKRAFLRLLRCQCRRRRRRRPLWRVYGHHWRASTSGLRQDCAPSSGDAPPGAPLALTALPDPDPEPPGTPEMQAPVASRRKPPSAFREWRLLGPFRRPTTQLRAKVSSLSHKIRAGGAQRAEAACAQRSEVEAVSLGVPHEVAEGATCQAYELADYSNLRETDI
Outline: as §1

5-HT5A = target: T4, 5-HT5A (Homo sapiens, UniProt P47898)
T4 construct: NIMH PDSP
Outline: as §1

Alpha2C = target: T5, Alpha2C (Homo sapiens, UniProt P18825)
T5 construct: NIMH PDSP
T5 sequence (P18825 1-462): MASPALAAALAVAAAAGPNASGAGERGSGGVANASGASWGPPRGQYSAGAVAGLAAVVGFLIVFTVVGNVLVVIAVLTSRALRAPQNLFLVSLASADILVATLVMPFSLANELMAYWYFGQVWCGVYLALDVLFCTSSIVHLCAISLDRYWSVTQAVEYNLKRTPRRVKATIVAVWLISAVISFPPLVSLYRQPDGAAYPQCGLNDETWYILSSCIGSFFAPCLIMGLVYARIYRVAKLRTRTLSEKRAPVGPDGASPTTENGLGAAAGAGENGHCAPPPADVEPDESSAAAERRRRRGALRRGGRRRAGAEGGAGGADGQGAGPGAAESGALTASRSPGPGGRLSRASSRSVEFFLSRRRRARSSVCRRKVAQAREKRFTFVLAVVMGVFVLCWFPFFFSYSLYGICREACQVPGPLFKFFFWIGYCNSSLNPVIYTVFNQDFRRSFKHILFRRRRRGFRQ
Outline: as §1

[1] = quadruplicate, read-out: Mean±SD % inhibition
[2] = replicate 1, read-out: % Inhibition 1
[3] = replicate 2, read-out: % Inhibition 2
[4] = replicate 3, read-out: % Inhibition 3
[5] = replicate 4, read-out: % Inhibition 4

T4 sequence (P47898 whole entry, species assumed): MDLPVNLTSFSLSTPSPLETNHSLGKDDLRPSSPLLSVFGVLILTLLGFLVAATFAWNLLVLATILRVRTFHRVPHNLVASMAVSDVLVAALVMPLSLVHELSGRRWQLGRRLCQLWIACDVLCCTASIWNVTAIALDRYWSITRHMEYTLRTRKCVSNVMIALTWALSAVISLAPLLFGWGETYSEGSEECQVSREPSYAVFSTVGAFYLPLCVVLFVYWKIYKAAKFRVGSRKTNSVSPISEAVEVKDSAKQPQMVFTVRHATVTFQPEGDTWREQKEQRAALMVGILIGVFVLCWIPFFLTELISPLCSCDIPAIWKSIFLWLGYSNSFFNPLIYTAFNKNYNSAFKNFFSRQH

`COc1ccnc(N2CCC3(CCCN(Cc4cn(C)c5ccccc45)C3=O)CC2)n1` [CW24] was tested, and the “Mean±SD % inhibition” value (Sigma 2; quadruplicate) was 27.22 ±10.59%, the “% Inhibition 1” value (Sigma 2; replicate 1) was 42.39% and the “% Inhibition 2” value (Sigma 2; replicate 2) was 19.45%. The “% Inhibition 3” value (Sigma 2; replicate 3) was 26.56%, the “% Inhibition 4” value (Sigma 2; replicate 4) was 20.46% and the inhibition at 10 µM (5-HT3; [1]) was -4 ± 15.6%. For the same compound, the inhibition at 10 µM (5-HT3; [2]) was -7.18%, the inhibition at 10 µM (5-HT3; [3]) was 2.23% and the inhibition at 10 µM (5-HT3; [4]) was -23.9%. It also gave an inhibition at 10 µM (5-HT3; [5]) of 12.9%, an inhibition at 10 µM (5-HT2C; [1]) of 14.3 ± 40.6% and an inhibition at 10 µM (5-HT2C; [2]) of 28.8%. It also gave an inhibition at 10 µM (5-HT2C; [3]) of -38.5%, an inhibition at 10 µM (5-HT2C; [4]) of 8.5% and an inhibition at 10 µM (5-HT2C; [5]) of 58.2%. It also gave an inhibition at 10 µM (Alpha1D; [1]) of -13.7 ± 16.7%, an inhibition at 10 µM (Alpha1D; [2]) of 6.91% and an inhibition at 10 µM (Alpha1D; [3]) of -32.8%. The inhibition at 10 µM (Alpha1D; [4]) was -9.43%, the inhibition at 10 µM (Alpha1D; [5]) was -19.4% and the inhibition at 10 µM (5-HT5A; [1]) was -4.44 ± 7.73%. It also gave an inhibition at 10 µM (5-HT5A; [2]) of 5.59%, an inhibition at 10 µM (5-HT5A; [3]) of -6.33% and an inhibition at 10 µM (5-HT5A; [4]) of -13.1%. It also gave an inhibition at 10 µM (5-HT5A; [5]) of -3.89%, an inhibition at 10 µM (Alpha2C; [1]) of 11.1 ± 20.6% and an inhibition at 10 µM (Alpha2C; [2]) of 38.6%. The inhibition at 10 µM (Alpha2C; [3]) was 2.3%, the inhibition at 10 µM (Alpha2C; [4]) was -9.91% and the inhibition at 10 µM (Alpha2C; [5]) was 13.3%.
